± gives the expanded uncertainty stated by the source.
Experiments:
[1] = refractive index (Na D-line) (dimensionless); xn = mol fraction of the nth substance listed; details: 100 kPa, Liquid, Standard Abbe refractometry
[2] = xn = mol fraction of the nth substance listed; details: 100 kPa, Liquid, Falling or rolling sphere viscometry

Question: Which refractive index ([1]; 293.15 K, x2 = 0) does the source give for Nc1ccccc1 [aniline] + CCn1cc[n+](C)c1.F[B-](F)(F)F here?
Answer: 1.58481 ± 0.001

Question: What about the refractive index ([1]; 293.15 K, x2 = 0.1008) of the same compound?
Answer: 1.56571 ± 0.0024

Question: And the refractive index ([1]; 293.15 K, x2 = 0.2035)?
Answer: 1.54192 ± 0.0024

Question: What about the refractive index ([1]; 293.15 K, x2 = 0.3059) of the same compound?
Answer: 1.52125 ± 0.0023

Question: And the refractive index ([1]; 293.15 K, x2 = 0.4053)?
Answer: 1.50001 ± 0.0023

Question: What about the refractive index ([1]; 293.15 K, x2 = 0.5073) of the same compound?
Answer: 1.47963 ± 0.0022

Question: What about the refractive index ([1]; 293.15 K, x2 = 0.6013) of the same compound?
Answer: 1.46255 ± 0.0019

Question: What about the refractive index ([1]; 293.15 K, x2 = 0.7046) of the same compound?
Answer: 1.44852 ± 0.0017

Question: What about the refractive index ([1]; 293.15 K, x2 = 0.8067) of the same compound?
Answer: 1.43589 ± 0.0016

Question: And the refractive index ([1]; 293.15 K, x2 = 0.9059)?
Answer: 1.42458 ± 0.0015

Question: What about the refractive index ([1]; 303.15 K, x2 = 0) of the same compound?
Answer: 1.58152 ± 0.001

Question: And the refractive index ([1]; 303.15 K, x2 = 0.1008)?
Answer: 1.56202 ± 0.0024

Question: What about the refractive index ([1]; 303.15 K, x2 = 0.2035) of the same compound?
Answer: 1.53814 ± 0.0024

Question: And the refractive index ([1]; 303.15 K, x2 = 0.3059)?
Answer: 1.51691 ± 0.0023

Question: What about the refractive index ([1]; 303.15 K, x2 = 0.4053) of the same compound?
Answer: 1.49592 ± 0.0023

Question: What about the refractive index ([1]; 303.15 K, x2 = 0.5073) of the same compound?
Answer: 1.47616 ± 0.0022

Question: And the refractive index ([1]; 303.15 K, x2 = 0.6013)?
Answer: 1.45885 ± 0.0019

Question: What about the refractive index ([1]; 303.15 K, x2 = 0.7046) of the same compound?
Answer: 1.44449 ± 0.0017

Question: What about the refractive index ([1]; 303.15 K, x2 = 0.8067) of the same compound?
Answer: 1.43188 ± 0.0016

Question: And the refractive index ([1]; 303.15 K, x2 = 0.9059)?
Answer: 1.42066 ± 0.0015

Question: What about the refractive index ([1]; 313.15 K, x2 = 0) of the same compound?
Answer: 1.57823 ± 0.001

Question: And the refractive index ([1]; 313.15 K, x2 = 0.1008)?
Answer: 1.55833 ± 0.0024

Question: What about the refractive index ([1]; 313.15 K, x2 = 0.2035) of the same compound?
Answer: 1.53436 ± 0.0024

Question: And the refractive index ([1]; 313.15 K, x2 = 0.3059)?
Answer: 1.51285 ± 0.0024

Question: And the refractive index ([1]; 313.15 K, x2 = 0.4053)?
Answer: 1.49183 ± 0.0022

Question: What about the refractive index ([1]; 313.15 K, x2 = 0.5073) of the same compound?
Answer: 1.47269 ± 0.0022

Question: And the refractive index ([1]; 313.15 K, x2 = 0.6013)?
Answer: 1.45515 ± 0.0019

Question: What about the refractive index ([1]; 313.15 K, x2 = 0.7046) of the same compound?
Answer: 1.44126 ± 0.0017

Question: What about the refractive index ([1]; 313.15 K, x2 = 0.8067) of the same compound?
Answer: 1.42857 ± 0.0016

Question: What about the refractive index ([1]; 313.15 K, x2 = 0.9059) of the same compound?
Answer: 1.41748 ± 0.0015

Question: What about the refractive index ([1]; 323.15 K, x2 = 0) of the same compound?
Answer: 1.57494 ± 0.001

Question: What about the refractive index ([1]; 323.15 K, x2 = 0.1008) of the same compound?
Answer: 1.55464 ± 0.0024

Question: What about the refractive index ([1]; 323.15 K, x2 = 0.2035) of the same compound?
Answer: 1.53058 ± 0.0025

Question: What about the refractive index ([1]; 323.15 K, x2 = 0.3059) of the same compound?
Answer: 1.5078 ± 0.0024

Question: What about the refractive index ([1]; 323.15 K, x2 = 0.4053) of the same compound?
Answer: 1.48774 ± 0.0022

Question: What about the refractive index ([1]; 323.15 K, x2 = 0.5073) of the same compound?
Answer: 1.46922 ± 0.0021

Question: What about the refractive index ([1]; 323.15 K, x2 = 0.6013) of the same compound?
Answer: 1.45245 ± 0.0019

Question: And the refractive index ([1]; 323.15 K, x2 = 0.7046)?
Answer: 1.43823 ± 0.0017

Question: And the refractive index ([1]; 323.15 K, x2 = 0.8067)?
Answer: 1.42556 ± 0.0016

Question: And the refractive index ([1]; 323.15 K, x2 = 0.9059)?
Answer: 1.41454 ± 0.0015

Question: What about the viscosity ([2]; 293.15 K, x2 = 0) of the same compound?
Answer: 4.38 ± 0.26 mPa·s

Question: What about the viscosity ([2]; 293.15 K, x2 = 0.1008) of the same compound?
Answer: 6.84 ± 0.48 mPa·s

Question: What about the viscosity ([2]; 293.15 K, x2 = 0.2035) of the same compound?
Answer: 9.46 ± 0.64 mPa·s

Question: What about the viscosity ([2]; 293.15 K, x2 = 0.3059) of the same compound?
Answer: 12.58 ± 0.83 mPa·s

Question: What about the viscosity ([2]; 293.15 K, x2 = 0.4053) of the same compound?
Answer: 15.93 ± 1 mPa·s

Question: And the viscosity ([2]; 293.15 K, x2 = 0.5073)?
Answer: 20.31 ± 1.3 mPa·s

Question: What about the viscosity ([2]; 293.15 K, x2 = 0.6013) of the same compound?
Answer: 24.51 ± 1.6 mPa·s

Question: And the viscosity ([2]; 293.15 K, x2 = 0.7046)?
Answer: 28.93 ± 1.8 mPa·s

Question: What about the viscosity ([2]; 293.15 K, x2 = 0.8067) of the same compound?
Answer: 33.76 ± 2.1 mPa·s

Question: And the viscosity ([2]; 293.15 K, x2 = 0.9059)?
Answer: 39.55 ± 2.5 mPa·s

Question: And the viscosity ([2]; 303.15 K, x2 = 0)?
Answer: 3.24 ± 0.2 mPa·s

Question: And the viscosity ([2]; 303.15 K, x2 = 0.1008)?
Answer: 4.88 ± 0.35 mPa·s

Question: And the viscosity ([2]; 303.15 K, x2 = 0.2035)?
Answer: 6.99 ± 0.47 mPa·s

Question: And the viscosity ([2]; 303.15 K, x2 = 0.3059)?
Answer: 8.93 ± 0.58 mPa·s

Question: What about the viscosity ([2]; 303.15 K, x2 = 0.4053) of the same compound?
Answer: 11.33 ± 0.73 mPa·s

Question: What about the viscosity ([2]; 303.15 K, x2 = 0.5073) of the same compound?
Answer: 14.07 ± 0.9 mPa·s

Question: And the viscosity ([2]; 303.15 K, x2 = 0.6013)?
Answer: 17.1 ± 1.1 mPa·s

Question: And the viscosity ([2]; 303.15 K, x2 = 0.7046)?
Answer: 20.39 ± 1.3 mPa·s

Question: What about the viscosity ([2]; 303.15 K, x2 = 0.8067) of the same compound?
Answer: 23.93 ± 1.5 mPa·s

Question: What about the viscosity ([2]; 303.15 K, x2 = 0.9059) of the same compound?
Answer: 27.15 ± 1.7 mPa·s

Question: And the viscosity ([2]; 313.15 K, x2 = 0)?
Answer: 2.47 ± 0.15 mPa·s

Question: What about the viscosity ([2]; 313.15 K, x2 = 0.1008) of the same compound?
Answer: 3.66 ± 0.26 mPa·s

Question: And the viscosity ([2]; 313.15 K, x2 = 0.2035)?
Answer: 5.16 ± 0.35 mPa·s

Question: What about the viscosity ([2]; 313.15 K, x2 = 0.3059) of the same compound?
Answer: 6.81 ± 0.45 mPa·s

Question: What about the viscosity ([2]; 313.15 K, x2 = 0.4053) of the same compound?
Answer: 8.59 ± 0.55 mPa·s

Question: What about the viscosity ([2]; 313.15 K, x2 = 0.5073) of the same compound?
Answer: 10.48 ± 0.67 mPa·s

Question: What about the viscosity ([2]; 313.15 K, x2 = 0.6013) of the same compound?
Answer: 12.51 ± 0.79 mPa·s

Question: And the viscosity ([2]; 313.15 K, x2 = 0.7046)?
Answer: 14.91 ± 0.93 mPa·s

Question: And the viscosity ([2]; 313.15 K, x2 = 0.8067)?
Answer: 17.35 ± 1.1 mPa·s

Question: And the viscosity ([2]; 313.15 K, x2 = 0.9059)?
Answer: 19.68 ± 1.2 mPa·s

Question: And the viscosity ([2]; 323.15 K, x2 = 0)?
Answer: 1.95 ± 0.12 mPa·s

Question: And the viscosity ([2]; 323.15 K, x2 = 0.1008)?
Answer: 2.66 ± 0.19 mPa·s

Question: And the viscosity ([2]; 323.15 K, x2 = 0.2035)?
Answer: 3.89 ± 0.26 mPa·s

Question: And the viscosity ([2]; 323.15 K, x2 = 0.3059)?
Answer: 5.07 ± 0.33 mPa·s

Question: What about the viscosity ([2]; 323.15 K, x2 = 0.4053) of the same compound?
Answer: 6.51 ± 0.42 mPa·s

Question: And the viscosity ([2]; 323.15 K, x2 = 0.5073)?
Answer: 7.99 ± 0.51 mPa·s

Question: What about the viscosity ([2]; 323.15 K, x2 = 0.6013) of the same compound?
Answer: 9.51 ± 0.6 mPa·s

Question: What about the viscosity ([2]; 323.15 K, x2 = 0.7046) of the same compound?
Answer: 11.06 ± 0.69 mPa·s

Question: And the viscosity ([2]; 323.15 K, x2 = 0.8067)?
Answer: 12.99 ± 0.81 mPa·s

Question: And the viscosity ([2]; 323.15 K, x2 = 0.9059)?
Answer: 14.9 ± 0.92 mPa·s

From the NIST ThermoML archive (doi:10.1016/j.jct.2019.105891)
